Legend:
[1] = target: T1, IL-17A/F (Homo sapiens, UniProt Q16552+Q96PD4); experiment: IL-17A/F HEK-Blue cell assay (SEAP reporter); assay type: cell-based; details: HEK-Blue IL-17A reporter cells, IL17A/F 5 ng/mL, 20 hours, SEAP read at A630; read-out: HEK-Blue IL17AF (IC50 for IL-17A/F inhibition)
T1 construct: purchased R&D Systems
T1 sequence (Q16552 24-155): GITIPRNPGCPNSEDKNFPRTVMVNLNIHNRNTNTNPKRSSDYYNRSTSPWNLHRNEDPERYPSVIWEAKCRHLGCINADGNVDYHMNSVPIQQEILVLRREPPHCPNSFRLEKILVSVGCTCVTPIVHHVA
T1 sequence (Q96PD4 31-163): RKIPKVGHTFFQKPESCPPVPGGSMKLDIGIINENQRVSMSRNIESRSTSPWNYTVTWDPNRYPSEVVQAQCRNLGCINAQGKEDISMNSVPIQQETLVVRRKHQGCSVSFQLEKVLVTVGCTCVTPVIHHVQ

[2] = target: T2, IL-17A/A (Homo sapiens, UniProt Q16552); experiment: IL-17A/A HEK-Blue cell assay (SEAP reporter); assay type: cell-based; details: HEK-Blue IL-17A reporter cells, IL17A/A 5 ng/mL, 20 hours, SEAP read at A630; read-out: HEK-Blue IL17AA (IC50 for IL-17A/A inhibition)
T2 construct: purchased Genscript Z03228
T2 sequence (Q16552 24-155): T1 sequence (Q16552 24-155)

Row | IC50 [1] | IC50 [2] | SMILES
1 | 100 to 1000 nM | < 100 nM | CCn1nccc1C(=O)N[C@H](c1cn2nc(C[C@H]3C[C@@H](C(F)(F)F)CNC3=O)c(N(C)C)nc2n1)[C@H]1CCCC(F)(F)C1 [Compound 117, N—((S)—((S)-3,3-difluorocyclohexyl)(3-(dimethylamino)-2-(((3R,5R)-2-oxo-5-(trifluoromethyl)piperidin-3-yl)methyl)imidazo[1,2-b][1,2,4]triazin-6-yl)methyl)-1-ethyl-1H-pyrazole-5-carboxamide]
2 | 100 to 1000 nM | < 100 nM | CCn1nccc1C(=O)N[C@H](c1cn2nc(C[C@H]3C[C@@H](C(F)(F)F)CNC3=O)c(N(C)C)nc2n1)[C@@H]1CCCC(F)(F)C1 [Compound 119, N—((S)—((R)-3,3-difluorocyclohexyl)(3-(dimethylamino)-2-(((3R,5R)-2-oxo-5-(trifluoromethyl)piperidin-3-yl)methyl)imidazo[1,2-b][1,2,4]triazin-6-yl)methyl)-1-ethyl-1H-pyrazole-5-carboxamide]
3 | < 100 nM | < 100 nM | CCn1nccc1C(=O)N[C@H](c1cn2nc(C[C@H]3C[C@@H](C(F)(F)F)CNC3=O)c(N3CCO[C@H](C)C3)nc2n1)[C@H]1CCCC(F)(F)C1 [Compound 121, N—((S)—((S)-3,3-difluorocyclohexyl)(3-((R)-2-methylmorpholino)-2-(((3R,5R)-2-oxo-5-(trifluoromethyl)piperidin-3-yl)methyl)imidazo[1,2-b][1,2,4]triazin-6-yl)methyl)-1-ethyl-1H-pyrazole-5-carboxamide]
4 | 100 to 1000 nM | < 100 nM | CCn1nccc1C(=O)N[C@H](c1cn2nc(C[C@H]3C[C@@H](C(F)(F)F)CNC3=O)c(N3CCO[C@@H](C)C3)nc2n1)[C@H]1CCCC(F)(F)C1 [Compound 123, N—((S)—((S)-3,3-difluorocyclohexyl)(3-((S)-2-methylmorpholino)-2-(((3R,5R)-2-oxo-5-(trifluoromethyl)piperidin-3-yl)methyl)imidazo[1,2-b][1,2,4]triazin-6-yl)methyl)-1-ethyl-1H-pyrazole-5-carboxamide]
5 | 100 to 1000 nM | < 100 nM | CC(C)n1nccc1C(=O)N[C@H](c1cn2nc(C[C@H]3C[C@@H](C(F)(F)F)CNC3=O)c(C3CCOCC3)nc2n1)[C@@H]1CCCC(F)(F)C1 [Compound 127, N-((1S)—((R)-3,3-difluorocyclohexyl)(2-(((3R,5R)-2-oxo-5-(trifluoromethyl)piperidin-3-yl)methyl)-3-(tetrahydro-2H-pyran-4-yl)imidazo[1,2-b][1,2,4]triazin-6-yl)methyl)-1-isopropyl-1H-pyrazole-5-carboxamide]
6 | > 1000 nM | < 100 nM | O=C(N[C@H](c1cn2nc(C[C@H]3C[C@@H](C(F)(F)F)CNC3=O)c(C3CCOCC3)nc2n1)C1CCC(F)(F)CC1)c1nonc1C1CC1 [Compound 136, 4-cyclopropyl-N-((1S)-(4,4-difluorocyclohexyl)(2-(((3R,5R)-2-oxo-5-(trifluoromethyl)piperidin-3-yl)methyl)-3-(tetrahydro-2H-pyran-4-yl)imidazo[1,2-b][1,2,4]triazin-6-yl)methyl)-1,2,5-oxadiazole-3-carboxamide]
7 | 100 to 1000 nM | < 100 nM | CCn1nccc1C(=O)N[C@H](c1cn2nc(C[C@H]3C[C@@H](C(F)(F)F)CNC3=O)c(C3CCOCC3)nc2n1)C(C1CC1)C1CC1 [Compound 137, N-((1S)-2,2-dicyclopropyl-1-(2-(((3R,5R)-2-oxo-5-(trifluoromethyl)piperidin-3-yl)methyl)-3-(tetrahydro-2H-pyran-4-yl)imidazo[1,2-b][1,2,4]triazin-6-yl)ethyl)-1-ethyl-1H-pyrazole-5-carboxamide]
8 | 100 to 1000 nM | < 100 nM | CCn1nccc1C(=O)N[C@H](c1cn2nc(C[C@H]3C[C@H](C(F)(F)F)CNC3=O)c(C3CCOCC3)nc2n1)C1CCC(F)(F)CC1 [Compound 140, N-((1S)-(4,4-difluorocyclohexyl)(2-(((3R,5S)-2-oxo-5-(trifluoromethyl)piperidin-3-yl)methyl)-3-(tetrahydro-2H-pyran-4-yl)imidazo[1,2-b][1,2,4]triazin-6-yl)methyl)-1-ethyl-1H-pyrazole-5-carboxamide]
9 | < 100 nM | < 100 nM | CCn1nccc1C(=O)N[C@H](c1cn2nc(C[C@H]3C[C@@H](C(F)(F)F)CNC3=O)c(CC3CCOCC3)nc2n1)C1CCC(F)(F)CC1 [Compound 141, N-((1S)-(4,4-difluorocyclohexyl)(2-(((3R,5R)-2-oxo-5-(trifluoromethyl)piperidin-3-yl)methyl)-3-((tetrahydro-2H-pyran-4-yl)methyl)imidazo[1,2-b][1,2,4]triazin-6-yl)methyl)-1-ethyl-1H-pyrazole-5-carboxamide]
10 | > 1000 nM | < 100 nM | CCn1nccc1C(=O)N[C@H](c1cn2nc(C[C@H]3C[C@@H](C(F)(F)F)CNC3=O)c(CN3CCOCC3)nc2n1)C1CCC(F)(F)CC1 [Compound 142, N—((S)-(4,4-difluorocyclohexyl)(3-(morpholinomethyl)-2-(((3R,5R)-2-oxo-5-(trifluoromethyl)piperidin-3-yl)methyl)imidazo[1,2-b][1,2,4]triazin-6-yl)methyl)-1-ethyl-1H-pyrazole-5-carboxamide]
11 | 100 to 1000 nM | < 100 nM | CCn1nccc1C(=O)N[C@H](c1cn2nc(C[C@H]3C[C@@H](C(F)(F)F)CNC3=O)c(N(C)C3CC3)nc2n1)C1CCC(F)(F)CC1 [Compound 143, N—((S)-(3-(cyclopropyl(methyl)amino)-2-(((3R,5R)-2-oxo-5-(trifluoromethyl)piperidin-3-yl)methyl)imidazo[1,2-b][1,2,4]triazin-6-yl)(4,4-difluorocyclohexyl)methyl)-1-ethyl-1H-pyrazole-5-carboxamide]
12 | 100 to 1000 nM | < 100 nM | CCc1nocc1C(=O)N[C@H](c1cn2nc(C[C@H]3C[C@@H](C(F)(F)F)CNC3=O)c(C3CCOCC3)nc2n1)C1CCC(F)(F)CC1 [Compound 146, N-((1S)-(4,4-difluorocyclohexyl)(2-(((3R,5R)-2-oxo-5-(trifluoromethyl)piperidin-3-yl)methyl)-3-(tetrahydro-2H-pyran-4-yl)imidazo[1,2-b][1,2,4]triazin-6-yl)methyl)-3-ethylisoxazole-4-carboxamide]
13 | 100 to 1000 nM | < 100 nM | CC(C)n1nccc1C(=O)N[C@H](c1cn2nc(C[C@H]3C[C@@H](C(F)(F)F)CNC3=O)c(C3CCOCC3)nc2n1)C1CCC(F)(F)CC1 [Compound 147, N-((1S)-(4,4-difluorocyclohexyl)(2-(((3R,5R)-2-oxo-5-(trifluoromethyl)piperidin-3-yl)methyl)-3-(tetrahydro-2H-pyran-4-yl)imidazo[1,2-b][1,2,4]triazin-6-yl)methyl)-1-isopropyl-1H-pyrazole-5-carboxamide]
14 | 100 to 1000 nM | < 100 nM | CCc1nonc1C(=O)N[C@H](c1cn2nc(C[C@H]3C[C@@H](C(F)(F)F)CNC3=O)c(C3CCOCC3)nc2n1)C1CCC(F)(F)CC1 [Compound 149, N-((1S)-(4,4-difluorocyclohexyl)(2-(((3R,5R)-2-oxo-5-(trifluoromethyl)piperidin-3-yl)methyl)-3-(tetrahydro-2H-pyran-4-yl)imidazo[1,2-b][1,2,4]triazin-6-yl)methyl)-4-ethyl-1,2,5-oxadiazole-3-carboxamide]
15 | 100 to 1000 nM | < 100 nM | Cn1nccc1C(=O)N[C@H](c1cn2nc(C[C@H]3C[C@@H](C(F)(F)F)CNC3=O)c(C3CCOCC3)nc2n1)C1CCC(F)(F)CC1 [Compound 150, N-((1S)-(4,4-difluorocyclohexyl)(2-(((3R,5R)-2-oxo-5-(trifluoromethyl)piperidin-3-yl)methyl)-3-(tetrahydro-2H-pyran-4-yl)imidazo[1,2-b][1,2,4]triazin-6-yl)methyl)-1-methyl-1H-pyrazole-5-carboxamide]
16 | 100 to 1000 nM | < 100 nM | CCn1nccc1C(=O)N[C@H](c1cn2nc(C[C@H]3C[C@@H](C(F)(F)F)NC3=O)c(C3CCOCC3)nc2n1)C1CCC(F)(F)CC1 [Compound 151, N—((S)-(4,4-difluorocyclohexyl)(2-(((3R,5S)-2-oxo-5-(trifluoromethyl)pyrrolidin-3-yl)methyl)-3-(tetrahydro-2H-pyran-4-yl)imidazo[1,2-b][1,2,4]triazin-6-yl)methyl)-1-ethyl-1H-pyrazole-5-carboxamide]
17 | 100 to 1000 nM | < 100 nM | CCn1nccc1C(=O)N[C@H](c1cn2nc(C[C@H]3C[C@@H](C(F)(F)F)NC3=O)c(C3CCOCC3)nc2n1)[C@H]1CC[C@H](C)CC1 [Compound 152, 1-ethyl-N—((S)-((1R,4S)-4-methylcyclohexyl)(2-(((3R,5S)-2-oxo-5-(trifluoromethyl)pyrrolidin-3-yl)methyl)-3-(tetrahydro-2H-pyran-4-yl)imidazo[1,2-b][1,2,4]triazin-6-yl)methyl)-1H-pyrazole-5-carboxamide]
18 | > 1000 nM | < 100 nM | O=C(N[C@H](c1cn2nc(C[C@H]3C[C@@H](C(F)(F)F)CNC3=O)c(C3CCOCC3)nc2n1)C1CCC(F)(F)CC1)c1ccn[nH]1 [Compound 154, N-((1S)-(4,4-difluorocyclohexyl)(2-(((3R,5R)-2-oxo-5-(trifluoromethyl)piperidin-3-yl)methyl)-3-(tetrahydro-2H-pyran-4-yl)imidazo[1,2-b][1,2,4]triazin-6-yl)methyl)-1H-pyrazole-5-carboxamide]

Source: patent US20260226068A1, “IMIDAZOTRIAZINE IL-17A MODULATORS AND USES THEREOF” (DICE ALPHA, INC., priority 2023, published 2026)
